Activity calls are given as the source filed them. No cut-off for these calls is given here.
What was measured:
Type in all cases: functional, organism-based
Conditions in all cases: Trachea
Pseudomonas aeruginosa [1] = test: Antimicrobial activity against Pseudomonas aeruginosa 65.68-3 tracheal isolates from mechanically ventilated tuberculosis patient
Pseudomonas aeruginosa [2] = test: Antimicrobial activity against Pseudomonas aeruginosa 13D11 tracheal isolates from mechanically ventilated chronic respiratory insufficiency patient
Pseudomonas aeruginosa [3] = test: Antimicrobial activity against Pseudomonas aeruginosa 19B6 tracheal isolates from mechanically ventilated chronic respiratory insufficiency patient
Pseudomonas aeruginosa [4] = test: Antimicrobial activity against Pseudomonas aeruginosa 2A7 tracheal isolates from mechanically ventilated tuberculosis patient
Pseudomonas aeruginosa [5] = test: Antimicrobial activity against Pseudomonas aeruginosa 19C7 tracheal isolates from mechanically ventilated chronic respiratory insufficiency patient
Pseudomonas aeruginosa [6] = test: Antimicrobial activity against Pseudomonas aeruginosa 9B5 tracheal isolates from mechanically ventilated chronic respiratory insufficiency patient
Pseudomonas aeruginosa [7] = test: Antimicrobial activity against Pseudomonas aeruginosa 5F2 tracheal isolates from mechanically ventilated chronic respiratory insufficiency patient
Pseudomonas aeruginosa [8] = test: Antimicrobial activity against Pseudomonas aeruginosa 3D1 tracheal isolates from mechanically ventilated chronic respiratory insufficiency patient
Pseudomonas aeruginosa [9] = test: Antimicrobial activity against Pseudomonas aeruginosa 8A2 tracheal isolates from mechanically ventilated chronic respiratory insufficiency patient
Pseudomonas aeruginosa [10] = test: Antimicrobial activity against Pseudomonas aeruginosa 65.36-4 tracheal isolates from mechanically ventilated tuberculosis patient
Pseudomonas aeruginosa [11] = test: Antimicrobial activity against Pseudomonas aeruginosa 9A10 tracheal isolates from mechanically ventilated chronic respiratory insufficiency patient
Pseudomonas aeruginosa [12] = test: Antimicrobial activity against Pseudomonas aeruginosa 8B11 tracheal isolates from mechanically ventilated chronic respiratory insufficiency patient
Pseudomonas aeruginosa [13] = test: Antimicrobial activity against Pseudomonas aeruginosa 3E2 tracheal isolates from mechanically ventilated chronic respiratory insufficiency patient
Pseudomonas aeruginosa [14] = test: Antimicrobial activity against Pseudomonas aeruginosa 22D9 tracheal isolates from mechanically ventilated chronic respiratory insufficiency patient
Pseudomonas aeruginosa [15] = test: Antimicrobial activity against Pseudomonas aeruginosa 10B3 tracheal isolates from mechanically ventilated chronic respiratory insufficiency patient
Pseudomonas aeruginosa [16] = test: Antimicrobial activity against Pseudomonas aeruginosa 65.38-3 tracheal isolates from mechanically ventilated tuberculosis patient
Pseudomonas aeruginosa [17] = test: Antimicrobial activity against Pseudomonas aeruginosa 8A12 tracheal isolates from mechanically ventilated chronic respiratory insufficiency patient
Pseudomonas aeruginosa [18] = test: Antimicrobial activity against Pseudomonas aeruginosa 22E1 tracheal isolates from mechanically ventilated chronic respiratory insufficiency patient
Pseudomonas aeruginosa [19] = test: Antimicrobial activity against Pseudomonas aeruginosa 19E2 tracheal isolates from mechanically ventilated chronic respiratory insufficiency patient
Pseudomonas aeruginosa [20] = test: Antimicrobial activity against Pseudomonas aeruginosa 10A6 tracheal isolates from mechanically ventilated chronic respiratory insufficiency patient
Pseudomonas aeruginosa [21] = test: Antimicrobial activity against Pseudomonas aeruginosa 65.36-3 tracheal isolates from mechanically ventilated tuberculosis patient
Pseudomonas aeruginosa [22] = test: Antimicrobial activity against Pseudomonas aeruginosa 16D5 tracheal isolates from mechanically ventilated chronic respiratory insufficiency patient
Pseudomonas aeruginosa [23] = test: Antimicrobial activity against Pseudomonas aeruginosa 2C1 tracheal isolates from mechanically ventilated tuberculosis patient
Pseudomonas aeruginosa [24] = test: Antimicrobial activity against Pseudomonas aeruginosa 10B1 tracheal isolates from mechanically ventilated chronic respiratory insufficiency patient
Pseudomonas aeruginosa [25] = test: Antimicrobial activity against Pseudomonas aeruginosa 65.36-1 tracheal isolates from mechanically ventilated tuberculosis patient
Pseudomonas aeruginosa [26] = test: Antimicrobial activity against Pseudomonas aeruginosa 22E3 tracheal isolates from mechanically ventilated chronic respiratory insufficiency patient
Pseudomonas aeruginosa [27] = test: Antimicrobial activity against Pseudomonas aeruginosa 9B2 tracheal isolates from mechanically ventilated chronic respiratory insufficiency patient
Pseudomonas aeruginosa [28] = test: Antimicrobial activity against Pseudomonas aeruginosa 2F6 tracheal isolates from mechanically ventilated tuberculosis patient
Pseudomonas aeruginosa [29] = test: Antimicrobial activity against Pseudomonas aeruginosa 2A9 tracheal isolates from mechanically ventilated tuberculosis patient
Pseudomonas aeruginosa [30] = test: Antimicrobial activity against Pseudomonas aeruginosa 3D10 tracheal isolates from mechanically ventilated chronic respiratory insufficiency patient
Pseudomonas aeruginosa [31] = test: Antimicrobial activity against Pseudomonas aeruginosa 19D9 tracheal isolates from mechanically ventilated chronic respiratory insufficiency patient
Pseudomonas aeruginosa [32] = test: Antimicrobial activity against Pseudomonas aeruginosa 65.33-4 tracheal isolates from mechanically ventilated tuberculosis patient
Pseudomonas aeruginosa [33] = test: Antimicrobial activity against Pseudomonas aeruginosa 13E1 tracheal isolates from mechanically ventilated chronic respiratory insufficiency patient
Pseudomonas aeruginosa [34] = test: Antimicrobial activity against Pseudomonas aeruginosa 19E9 tracheal isolates from mechanically ventilated chronic respiratory insufficiency patient
Pseudomonas aeruginosa [35] = test: Antimicrobial activity against Pseudomonas aeruginosa 5F8 tracheal isolates from mechanically ventilated chronic respiratory insufficiency patient
Pseudomonas aeruginosa [36] = test: Antimicrobial activity against Pseudomonas aeruginosa 29F6 tracheal isolates from mechanically ventilated chronic respiratory insufficiency patient
Pseudomonas aeruginosa [37] = test: Antimicrobial activity against Pseudomonas aeruginosa 9A7 tracheal isolates from mechanically ventilated chronic respiratory insufficiency patient
Pseudomonas aeruginosa [38] = test: Antimicrobial activity against Pseudomonas aeruginosa 12B2 tracheal isolates from mechanically ventilated chronic respiratory insufficiency patient
Pseudomonas aeruginosa [39] = test: Antimicrobial activity against Pseudomonas aeruginosa 65.68-2 tracheal isolates from mechanically ventilated tuberculosis patient
Pseudomonas aeruginosa [40] = test: Antimicrobial activity against Pseudomonas aeruginosa 5G3 tracheal isolates from mechanically ventilated chronic respiratory insufficiency patient
Pseudomonas aeruginosa [41] = test: Antimicrobial activity against Pseudomonas aeruginosa 15G2 tracheal isolates from mechanically ventilated chronic respiratory insufficiency patient
Pseudomonas aeruginosa [42] = test: Antimicrobial activity against Pseudomonas aeruginosa 22C5 tracheal isolates from mechanically ventilated chronic respiratory insufficiency patient
Pseudomonas aeruginosa [43] = test: Antimicrobial activity against Pseudomonas aeruginosa 9A1 tracheal isolates from mechanically ventilated chronic respiratory insufficiency patient
Pseudomonas aeruginosa [44] = test: Antimicrobial activity against Pseudomonas aeruginosa 12A7 tracheal isolates from mechanically ventilated chronic respiratory insufficiency patient
Pseudomonas aeruginosa [45] = test: Antimicrobial activity against Pseudomonas aeruginosa 12A3 tracheal isolates from mechanically ventilated chronic respiratory insufficiency patient
Pseudomonas aeruginosa [46] = test: Antimicrobial activity against Pseudomonas aeruginosa 65.38-1 tracheal isolates from mechanically ventilated tuberculosis patient
Pseudomonas aeruginosa [47] = test: Antimicrobial activity against Pseudomonas aeruginosa 24G1 tracheal isolates from mechanically ventilated chronic respiratory insufficiency patient
Pseudomonas aeruginosa [48] = test: Antimicrobial activity against Pseudomonas aeruginosa 1A9 tracheal isolates from mechanically ventilated tuberculosis patient

## GENTAMICIN
Pseudomonas aeruginosa [1]
  Activity: inactive
Pseudomonas aeruginosa [2]
  Activity: Active
Pseudomonas aeruginosa [3]
  Activity: Active
Pseudomonas aeruginosa [4]
  Activity: inactive
Pseudomonas aeruginosa [5]
  Activity: Active
Pseudomonas aeruginosa [6]
  Activity: Active
Pseudomonas aeruginosa [7]
  Activity: Active
Pseudomonas aeruginosa [8]
  Activity: Active
Pseudomonas aeruginosa [9]
  Activity: Active
Pseudomonas aeruginosa [10]
  Activity: inactive
Pseudomonas aeruginosa [11]
  Activity: Active
Pseudomonas aeruginosa [12]
  Activity: Active
Pseudomonas aeruginosa [13]
  Activity: Active
Pseudomonas aeruginosa [14]
  Activity: Active
Pseudomonas aeruginosa [15]
  Activity: Active
Pseudomonas aeruginosa [16]
  Activity: inactive
Pseudomonas aeruginosa [17]
  Activity: Active
Pseudomonas aeruginosa [18]
  Activity: Active
Pseudomonas aeruginosa [19]
  Activity: Active
Pseudomonas aeruginosa [20]
  Activity: Active
Pseudomonas aeruginosa [21]
  Activity: inactive
Pseudomonas aeruginosa [22]
  Activity: Active
Pseudomonas aeruginosa [23]
  Activity: inactive
Pseudomonas aeruginosa [24]
  Activity: Active
Pseudomonas aeruginosa [25]
  Activity: inactive
Pseudomonas aeruginosa [26]
  Activity: Active
Pseudomonas aeruginosa [27]
  Activity: Active
Pseudomonas aeruginosa [28]
  Activity: inactive
Pseudomonas aeruginosa [29]
  Activity: inactive
Pseudomonas aeruginosa [30]
  Activity: Active
Pseudomonas aeruginosa [31]
  Activity: Active
Pseudomonas aeruginosa [32]
  Activity: Active
Pseudomonas aeruginosa [33]
  Activity: Active
Pseudomonas aeruginosa [34]
  Activity: Active
Pseudomonas aeruginosa [35]
  Activity: Active
Pseudomonas aeruginosa [36]
  Activity: Active
Pseudomonas aeruginosa [37]
  Activity: Active
Pseudomonas aeruginosa [38]
  Activity: Active
Pseudomonas aeruginosa [39]
  Activity: inactive
Pseudomonas aeruginosa [40]
  Activity: Active
Pseudomonas aeruginosa [41]
  Activity: Active
Pseudomonas aeruginosa [42]
  Activity: Active
Pseudomonas aeruginosa [43]
  Activity: Active
Pseudomonas aeruginosa [44]
  Activity: Active
Pseudomonas aeruginosa [45]
  Activity: Active
Pseudomonas aeruginosa [46]
  Activity: inactive
Pseudomonas aeruginosa [47]
  Activity: Active
Pseudomonas aeruginosa [48]
  Activity: inactive

From ChEMBL document CHEMBL1147101, “Development and persistence of antimicrobial resistance in Pseudomonas aeruginosa: a longitudinal observation in mechanically ventilated patients” (Antimicrob Agents Chemother, 2007)
